Assay results published in patent US20250136595A1, “ACYLATED HETEROCYCLIC QUINAZOLINE DERIVATIVES AS INHIBITORS OF ERBB2” (Enliven Inc., priority 2022, published 2025).

Columns and labels:
[1] = target: T1, phosphorylated EGFR (pEGFR) (Homo sapiens, UniProt P00533); experiment: Detection of phosphorylated EGFR (pEGFR) in EGF-stimulated A431 cells (AlphaLISA); type: cell-based; settings: A431 cells (10% FBS), 4 hours incubation, EGF 30 ng/mL for 10 minutes
T1 construct: performed to measure phosphorylated EGFR levels using A431 cells; endogenous in cells; host or cells: A431
T1 sequence (P00533 25-1210): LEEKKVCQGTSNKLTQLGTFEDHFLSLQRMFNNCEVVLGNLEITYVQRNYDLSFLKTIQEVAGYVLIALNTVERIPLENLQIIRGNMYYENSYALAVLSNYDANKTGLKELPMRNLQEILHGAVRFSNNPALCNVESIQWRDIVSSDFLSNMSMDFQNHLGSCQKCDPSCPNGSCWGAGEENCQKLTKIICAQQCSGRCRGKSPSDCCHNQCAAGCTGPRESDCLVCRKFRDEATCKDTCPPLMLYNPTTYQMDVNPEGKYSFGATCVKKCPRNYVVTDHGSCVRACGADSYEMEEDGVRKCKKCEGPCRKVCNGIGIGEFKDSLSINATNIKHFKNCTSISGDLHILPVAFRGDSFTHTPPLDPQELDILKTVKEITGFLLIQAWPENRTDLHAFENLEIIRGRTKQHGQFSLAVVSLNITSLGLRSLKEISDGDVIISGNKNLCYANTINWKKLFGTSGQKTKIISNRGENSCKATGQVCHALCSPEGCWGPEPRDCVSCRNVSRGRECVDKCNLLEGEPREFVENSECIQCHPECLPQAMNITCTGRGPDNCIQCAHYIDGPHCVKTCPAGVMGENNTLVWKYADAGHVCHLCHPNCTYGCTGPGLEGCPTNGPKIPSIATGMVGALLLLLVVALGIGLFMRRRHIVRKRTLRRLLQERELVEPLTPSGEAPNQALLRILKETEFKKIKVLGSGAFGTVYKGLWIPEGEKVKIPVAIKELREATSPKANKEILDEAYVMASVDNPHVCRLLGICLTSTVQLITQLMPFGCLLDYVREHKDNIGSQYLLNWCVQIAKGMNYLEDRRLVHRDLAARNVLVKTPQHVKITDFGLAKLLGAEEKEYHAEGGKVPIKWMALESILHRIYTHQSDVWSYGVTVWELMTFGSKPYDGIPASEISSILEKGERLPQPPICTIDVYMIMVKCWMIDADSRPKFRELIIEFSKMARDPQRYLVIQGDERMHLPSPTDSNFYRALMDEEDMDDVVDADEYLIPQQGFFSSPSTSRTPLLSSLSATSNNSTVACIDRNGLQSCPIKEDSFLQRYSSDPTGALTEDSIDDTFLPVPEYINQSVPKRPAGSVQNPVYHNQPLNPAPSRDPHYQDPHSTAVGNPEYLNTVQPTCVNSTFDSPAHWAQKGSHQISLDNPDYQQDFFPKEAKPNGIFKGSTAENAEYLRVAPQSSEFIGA
Method: Enzyme-linked immunosorbent assays (ELISA) were performed to measure phosphorylated EGFR levels using A431 cells (10% FBS). A431 (1.0*10^4 cells/40 μl/well) cells were seeded in 384 well. Compounds were dissolved in DMSO, serially diluted in DMSO and then were added, mixed, and incubated for 4 hours at 37° C., 5% CO2. Following the 4-hours incubation, cells were stimulated for 10 minutes with EGF (Invitrogen, cat #PHG0311) at a final concentration of 30 ng/mL in the incubator. The media was aspirated and cells were lysed in 10 μL lysis buffer with protease and phosphatase inhibitors (PerkinElmer, cat #ALSU-PEGFR-A50K). The plates were placed on a shaker for 5 minutes and then incubated for 30 min at 4° C. for complete lysis. The lysate was transferred to an Optiplate (Perkin Elmer, cat #6007290).
Acceptor mix (PerkinElmer, cat #ALSU-PEGFR-A50K) was prepared just before use and 5 μL was dispensed to all the wells, followed by a 1.5-2 h incubation at room temperature in dark. The donor mix (PerkinElmer, cat #ALSU-PEGFR-A50K) was prepared under low light conditions prior to use and 5 μl of donor mix was added to all the wells under subdued lighting or green filters. The plates were placed on a shaker for 5 min, sealed, and incubated overnight at room temperature in dark. Plates were read on the Envision (PerkinElmer) using standard AlphaLISA settings.
The percentage of inhibition on EGFR phosphorylation was calculated following equation: % Inhibition=100×(LumHC−LumSample)/(LumHC−LumLC). The low and high controls (LC/HC) are generated from lysate from wells with cells treated with DMSO or […] Staurosporine (BioAustralis, cat #BIA-S1086), […]. IC50 values were calculated by fitting the Curve using XLfit (v5.3.1.3), equation 201: Y=Bottom+ (Top−Bottom)/(1+10^((LogIC50−X)*HillSlope)).

[2] = target: T2, phosphorylated ERBB2 (pERBB2) (Homo sapiens, UniProt P04626); experiment: Detection of phosphorylated ERBB2 (pERBB2) by ELISA in BT-474 cells; type: cell-based; settings: four hour incubation with compound
T2 construct: endogenous in cells; host or cells: BT-474
T2 sequence (P04626 23-1255): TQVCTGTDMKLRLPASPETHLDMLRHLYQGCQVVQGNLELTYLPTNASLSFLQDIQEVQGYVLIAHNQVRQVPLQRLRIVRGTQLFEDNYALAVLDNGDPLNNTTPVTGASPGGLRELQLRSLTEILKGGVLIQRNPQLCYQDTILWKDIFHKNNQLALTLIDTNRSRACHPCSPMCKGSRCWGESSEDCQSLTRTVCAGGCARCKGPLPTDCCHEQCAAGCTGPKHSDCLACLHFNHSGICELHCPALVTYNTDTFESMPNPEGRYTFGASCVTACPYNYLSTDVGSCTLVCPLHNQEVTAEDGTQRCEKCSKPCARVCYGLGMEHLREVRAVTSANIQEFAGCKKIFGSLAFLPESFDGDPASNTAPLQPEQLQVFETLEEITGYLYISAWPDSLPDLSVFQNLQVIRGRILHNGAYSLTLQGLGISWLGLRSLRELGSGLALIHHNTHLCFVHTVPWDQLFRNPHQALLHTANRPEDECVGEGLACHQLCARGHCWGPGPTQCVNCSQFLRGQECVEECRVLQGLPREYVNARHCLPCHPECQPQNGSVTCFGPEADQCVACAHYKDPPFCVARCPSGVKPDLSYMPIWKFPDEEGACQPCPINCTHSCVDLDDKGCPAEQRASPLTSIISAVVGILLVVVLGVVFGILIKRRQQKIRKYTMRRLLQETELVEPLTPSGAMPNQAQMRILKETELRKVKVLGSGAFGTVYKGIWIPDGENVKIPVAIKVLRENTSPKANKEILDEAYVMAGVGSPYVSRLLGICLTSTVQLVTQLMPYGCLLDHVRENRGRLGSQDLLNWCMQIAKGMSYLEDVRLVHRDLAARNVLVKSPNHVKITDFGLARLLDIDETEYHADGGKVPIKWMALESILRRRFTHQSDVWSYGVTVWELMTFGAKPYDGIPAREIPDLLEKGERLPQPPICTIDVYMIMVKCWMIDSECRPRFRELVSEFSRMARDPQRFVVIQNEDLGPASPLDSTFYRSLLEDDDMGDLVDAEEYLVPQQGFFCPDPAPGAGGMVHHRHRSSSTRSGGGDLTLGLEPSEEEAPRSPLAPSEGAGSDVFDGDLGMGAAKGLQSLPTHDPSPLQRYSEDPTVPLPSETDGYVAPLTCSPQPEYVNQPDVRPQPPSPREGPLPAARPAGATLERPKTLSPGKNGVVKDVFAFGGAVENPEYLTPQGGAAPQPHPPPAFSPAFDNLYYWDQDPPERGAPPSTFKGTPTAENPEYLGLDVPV
Method: BT-474 cells were seeded into a 96-well at 2.0*10^4 cells/100 μl/well. Compounds were dissolved and serially diluted in DMSO. The compounds were then were added, mixed, and incubated for four hours at 37° C., 5% CO2. Compounds were added using four-fold dilutions at final concentrations ranging from 10 μM to 0.01 nM. Following the four hour incubation with compounds, cell lysates were prepared. Plates were centrifuged for 5 min at 3000 RPM, and supernatant was removed from each well. Cells were washed 3 times by resuspension in 150 μl PBS, followed by centrifugation and removal of the supernatant, as above. […] Cells were incubated with lysis buffer for 1 hour at 4° C., and then stored at -80° C. Enzyme-linked immunosorbent assays (ELISA) were performed to measure phosphorylated ERBB2 levels. […] The next day, plates were washed with PBS+0.05% Tween20 (PBST). 150 μl of 5% BSA blocking solution was added for 1 hour at room temperature, with shaking. Plates were washed with PBST. Cell lysates were thawed and 100 μl of lysate was added to the ELISA plate. The plates were incubated for 2 hours at room temperature, with shaking. […] Plates were incubated for 1 hour at room temperature, with shaking. Plates were then washed with PBST, and 100 μl TMB substrate solution (R&D Systems, cat #DY999) was added. Plate were incubated in the dark for 20 minutes at room temperature. 50 μl of Stop solution (R&D Systems, cat #DY994) (50 μl) was added to each well and mixed. Optical density at 450 nm was read on an EnSpire plate reader (Perkin Elmer). The remaining kinase activity by calculated using the following formula: % Relative activity=100×([…]). The low and high control values (“LC” and “HC”) were generated from lysate from wells without cells or with cells treated with 0.1% DMSO, respectively.

Ba/F3 ERBB2 YVMA = Ba/F3 ERBB2 YVMA (Homo sapiens, UniProt P04626, DUP772-775, cells depend on it); experiment: Cell viability assay (CellTiter Glo) in Ba/F3 cells engineered to express ERBB2 YVMA; type: cell-based, mouse; settings: Ba/F3 cells expressing human ERBB2 YVMA mutant, 72 hours, % viability, read-out: Ba/F3 ERBB2 YVMA IC50
Sequence of Ba/F3 ERBB2 YVMA (P04626 with tags, fused parts or gaps DUP772-775): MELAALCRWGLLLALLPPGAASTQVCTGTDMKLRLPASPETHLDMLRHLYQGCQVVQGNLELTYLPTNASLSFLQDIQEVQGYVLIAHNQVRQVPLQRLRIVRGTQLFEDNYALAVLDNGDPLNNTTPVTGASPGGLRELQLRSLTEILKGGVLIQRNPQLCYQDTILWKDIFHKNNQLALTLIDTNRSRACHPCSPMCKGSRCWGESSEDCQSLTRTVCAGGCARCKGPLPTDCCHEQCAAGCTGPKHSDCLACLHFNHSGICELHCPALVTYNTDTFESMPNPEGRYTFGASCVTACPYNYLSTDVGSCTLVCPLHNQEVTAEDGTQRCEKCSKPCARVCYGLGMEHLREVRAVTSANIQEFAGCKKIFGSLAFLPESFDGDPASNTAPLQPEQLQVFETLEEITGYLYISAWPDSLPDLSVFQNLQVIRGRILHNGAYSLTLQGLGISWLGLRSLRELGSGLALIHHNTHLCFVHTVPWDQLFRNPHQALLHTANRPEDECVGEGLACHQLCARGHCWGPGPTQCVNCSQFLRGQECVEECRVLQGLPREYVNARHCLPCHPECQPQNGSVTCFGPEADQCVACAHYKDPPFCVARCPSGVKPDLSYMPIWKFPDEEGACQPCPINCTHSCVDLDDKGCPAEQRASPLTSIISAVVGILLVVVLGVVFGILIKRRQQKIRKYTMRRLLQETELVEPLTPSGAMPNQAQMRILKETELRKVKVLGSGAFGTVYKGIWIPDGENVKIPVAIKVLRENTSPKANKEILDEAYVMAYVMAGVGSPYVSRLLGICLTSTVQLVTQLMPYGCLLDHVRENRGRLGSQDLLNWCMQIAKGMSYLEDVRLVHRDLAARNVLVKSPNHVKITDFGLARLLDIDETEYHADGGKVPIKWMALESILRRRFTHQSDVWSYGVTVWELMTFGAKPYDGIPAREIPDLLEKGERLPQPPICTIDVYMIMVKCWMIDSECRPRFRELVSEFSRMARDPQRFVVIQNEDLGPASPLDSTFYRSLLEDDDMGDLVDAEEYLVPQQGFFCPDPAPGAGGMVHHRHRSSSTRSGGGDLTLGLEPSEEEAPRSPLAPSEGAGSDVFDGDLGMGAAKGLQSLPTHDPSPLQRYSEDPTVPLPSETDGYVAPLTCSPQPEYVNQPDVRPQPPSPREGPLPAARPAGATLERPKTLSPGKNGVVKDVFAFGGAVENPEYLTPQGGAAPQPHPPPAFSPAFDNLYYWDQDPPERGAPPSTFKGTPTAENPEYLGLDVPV
Method: Cells were treated with compounds, and cell viability was measured as a metric of kinase inhibition.
The Ba/F3 cell line is IL-3-dependent mouse cell line derived from the C3H mouse strain. Ba/F3 cell lines were engineered to express human ERBB2 or EGFR kinases, rendering the cells IL-3 independent. The lines were generated via retroviral transduction utilizing a Moloney murine leukemia virus (MMLV) promoter, and constructs are stably integrated into the cell genome. The sequences of the ERBB2 and EGFR genes used were NCBI Reference Sequences NM_004448.3 and NM_005228.3, respectively.
Similarly, Ba/F3 cell lines engineered to express EGFR, ERBB2, or ERBB2 mutants were grown, harvested, counted and seeded at 3000 cells per well in 96-well plates for the data sets shown in Tables B3-B4. A subset of wells contained media only (low control, “LC”).
Table B1 provides the growth media and number of cells seeded per well for the each cell line.
Compounds were dissolved in DMSO and serially diluted. Serially-diluted compound or a DMSO only control (high control, “HC”) was added to the plated cells in each well. […] The final proportion of DMSO never exceeded 0.1%.
Plates were placed in a 37° C., 5% CO2 incubator for 72 hours. Plates were then removed from the incubator and equilibrated for 15 minutes at room temperature. 40 μl of CellTiter Glo reagent (Promega) was added to measure the relative level of metabolically active cells by quantifying intracellular ATP concentrations. Plates were incubated for 30 minutes at room temperature, and luminescence was measured. Percent viability was normalized to a vehicle control only using the following formula: % viability=100×(Lumsample−LumLC)/(LumHC−LumLC). Graphical curves were fitted using a nonlinear regression model with a sigmoidal dose response.

Work on `C=CC(=O)N1CC[C@H](Oc2ccc3ncnc(Nc4ccc(Oc5ccc6c(c5)ncn6C)c(C)c4)c3c2)C1` [Compound 38, 1-[(3S)-3-{[4-({3-methyl-4-[(1-methyl-1,3-benzodiazol-5-yl)oxy]phenyl}amino)quinazolin-6-yl]oxy}pyrrolidin-1-yl]prop-2-en-1-one] yielded an IC50 [1] of 462 nM, an IC50 [2] of 7.56 nM and a GI50 (Ba/F3 ERBB2 YVMA) of 7.22 nM.
`C=CC(=O)N1CCN(c2ccc3ncnc(Nc4ccc(O[C@@H]5CCCOC5)c(C)c4)c3c2)CC1` [Compound 102, 1-{4-[4-({3-methyl-4-[(3R)-oxan-3-yloxy]phenyl}amino)quinazolin-6-yl]piperazin-1-yl}prop-2-en-1-one] was tested, and the IC50 [1] was 244 nM, the IC50 [2] was 47.6 nM and the GI50 (Ba/F3 ERBB2 YVMA) was 43.9 nM.
Compound `C=CC(=O)N1CCN(c2ccc3ncnc(Nc4ccc(Cc5ccc6c(c5)ncn6C)c(C)c4)c3n2)C[C@H]1C` [Compound 53, 1-[(2R)-2-methyl-4-[4-({3-methyl-4-[(1-methyl-1,3-benzodiazol-5-yl)methyl]phenyl}amino)pyrido[3,2-d]pyrimidin-6-yl]piperazin-1-yl]prop-2-en-1-one] has an IC50 [1] of 1460 nM, an IC50 [2] of 35.4 nM and a GI50 (Ba/F3 ERBB2 YVMA) of 14 nM.
With `C=CC(=O)N1CCN(c2ccc3ncnc(Nc4ccc(Cc5ccc6c(c5)ncn6C)c(C)c4)c3n2)CC1` [Compound 82, 1-{4-[4-({3-methyl-4-[(1-methyl-1,3-benzodiazol-5-yl)methyl]phenyl}amino)pyrido[3,2-d]pyrimidin-6-yl]piperazin-1-yl}prop-2-en-1-one] the IC50 [1] was 2090 nM, the IC50 [2] was 54.1 nM and the GI50 (Ba/F3 ERBB2 YVMA) was 93.9 nM.
Work on `C=CC(=O)N1[C@H](C)CN(c2ccc3ncnc(Nc4ccc(Oc5ccn6ncnc6c5)c(C)c4)c3n2)C[C@H]1C` [Compound 61, 1-[(2R,6R)-2,6-dimethyl-4-{4-[(3-methyl-4-{[1,2,4]triazolo[1,5-a]pyridin-7-yloxy}phenyl)amino]pyrido[3,2-d]pyrimidin-6-yl}piperazin-1-yl]prop-2-en-1-one] yielded an IC50 [1] of over 10000 nM, an IC50 [2] of 254 nM and a GI50 (Ba/F3 ERBB2 YVMA) of over 500 nM.
For `C=CC(=O)N1CCN(c2ccc3ncnc(Nc4ccc(Cc5ccn6ncnc6c5)c(C)c4)c3c2)C[C@H]1C` [Compound 112, (R)-1-(4-(4-((4-([1,2,4]triazolo[1,5-a]pyridin-7-ylmethyl)-3-methylphenyl)amino)quinazolin-6-yl)-2-methylpiperazin-1-yl)prop-2-en-1-one], the IC50 [1] was over 10000 nM, the IC50 [2] was 33.1 nM and the GI50 (Ba/F3 ERBB2 YVMA) was 28 nM.
`C=CC(=O)N1CCN(c2cc3c(Nc4ccc(Oc5ccc6c(c5)ncn6C)c(C)c4)ncnc3cn2)[C@@H](C)C1` [Compound 107, 1-[(3S)-3-methyl-4-[4-({3-methyl-4-[(1-methyl-1,3-benzodiazol-5-yl)oxy]phenyl}amino)pyrido[3,4-d]pyrimidin-6-yl]piperazin-1-yl]prop-2-en-1-one] gave an IC50 [1] of 2880 nM, an IC50 [2] of 21.8 nM and a GI50 (Ba/F3 ERBB2 YVMA) of 73.4 nM.
With `C=CC(=O)N1CCN(c2cc3c(Nc4ccc(Cc5ccc6c(c5)ncn6C)c(C)c4)ncnc3cn2)[C@@H](C)C1` [Compound 86, 1-[(3S)-3-methyl-4-[4-({3-methyl-4-[(1-methyl-1,3-benzodiazol-5-yl)methyl]phenyl}amino)pyrido[3,4-d]pyrimidin-6-yl]piperazin-1-yl]prop-2-en-1-one] the IC50 [1] was 3180 nM, the IC50 [2] was 48.4 nM and the GI50 (Ba/F3 ERBB2 YVMA) was 20.5 nM.
For `Cc1cc(Nc2ncnc3ccc(N4CCN(C(=O)/C=C/CN(C)C)CC4)nc23)ccc1Cc1ccn2ncnc2c1` [Compound 87, (E)-1-(4-(4-((4-([1,2,4]triazolo[1,5-a]pyridin-7-ylmethyl)-3-methylphenyl)amino)pyrido[3,2-d]pyrimidin-6-yl)piperazin-1-yl)-4-(dimethylamino)but-2-en-1-one], the IC50 [1] was 2420 nM, the IC50 [2] was 12.9 nM and the GI50 (Ba/F3 ERBB2 YVMA) was 17.3 nM.
`C=CC(=O)N1CCN(c2ccc3ncnc(Nc4ccc(Oc5ccc(CC)nc5)c(C)c4)c3n2)CC1` [Compound 124, 1-(4-(4-((4-((6-ethylpyridin-3-yl)oxy)-3-methylphenyl)amino)pyrido[3,2-d]pyrimidin-6-yl)piperazin-1-yl)prop-2-en-1-one] gave an IC50 [1] of 2580 nM, an IC50 [2] of 138 nM and a GI50 (Ba/F3 ERBB2 YVMA) of 35.9 nM.
`C=CC(=O)N1CCN(c2ccc3ncnc(Nc4ccc(Oc5ccc6c(c5)ncn6C)c(C)c4)c3n2)C[C@H]1C` [Compound 48, 1-[(2R)-2-methyl-4-[4-({3-methyl-4-[(1-methyl-1,3-benzodiazol-5-yl)oxy]phenyl}amino)pyrido[3,2-d]pyrimidin-6-yl]piperazin-1-yl]prop-2-en-1-one] was tested, and the IC50 [1] was 1200 nM, the IC50 [2] was 33.2 nM and the GI50 (Ba/F3 ERBB2 YVMA) was 18.3 nM.
`C=CC(=O)N1CCN(c2cc3c(Nc4ccc(Cc5ccn6ncnc6c5)c(C)c4)ncnc3cn2)[C@@H](C)C1` [Compound 85, (S)-1-(4-(4-((4-([1,2,4]triazolo[1,5-a]pyridin-7-ylmethyl)-3-methylphenyl)amino)pyrido[3,4-d]pyrimidin-6-yl)-3-methylpiperazin-1-yl)prop-2-en-1-one] gave an IC50 [1] of over 10000 nM, an IC50 [2] of 47.7 nM and a GI50 (Ba/F3 ERBB2 YVMA) of 69.7 nM.
Work on `C=CC(=O)N1CCN(c2cc3c(Nc4ccc(Oc5ccc(C(=O)NCC(C)(C)C)cc5)c(C)c4)ncnc3cn2)CC1` [Compound 39, N-(2,2-dimethylpropyl)-4-[2-methyl-4-({6-[4-(prop-2-enoyl)piperazin-1-yl]pyrido[3,4-d]pyrimidin-4-yl}amino)phenoxy]benzamide] yielded an IC50 [1] of 3360 nM, an IC50 [2] of 59.9 nM and a GI50 (Ba/F3 ERBB2 YVMA) of 53 nM.
With `C=CC(=O)N1CC2CCC(C1)N2c1ccc2ncnc(Nc3ccc(Oc4ccc5c(c4)ncn5C)c(C)c3)c2n1` [Compound 73, 1-{8-[4-({3-methyl-4-[(1-methyl-1,3-benzodiazol-5-yl)oxy]phenyl}amino)pyrido[3,2-d]pyrimidin-6-yl]-3,8-diazabicyclo[3.2.1]octan-3-yl}prop-2-en-1-one] the IC50 [1] was 281 nM, the IC50 [2] was 32.5 nM and the GI50 (Ba/F3 ERBB2 YVMA) was 29 nM.
For `CC#CC(=O)N1CC2CCC(C1)N2c1ccc2ncnc(Nc3ccc(Oc4ccc5c(c4)ncn5C)c(C)c3)c2n1` [Compound 75, 1-(8-(4-((3-methyl-4-((1-methyl-1H-benzo[d]imidazol-5-yl)oxy)phenyl)amino)pyrido[3,2-d]pyrimidin-6-yl)-3,8-diazabicyclo[3.2.1]octan-3-yl)but-2-yn-1-one], the IC50 [1] was 4060 nM, the IC50 [2] was 42.3 nM and the GI50 (Ba/F3 ERBB2 YVMA) was 8.19 nM.
